The values that follow are results of earlier work, collected in publication PMC6008299, “Impact of race on dose selection of molecular-targeted agents in early-phase oncology trials” (British Journal of Cancer, 2018).

Read-outs that look alike come from different tables or passages of the source. Marks after values point to notes of the source that are not given here.

For data set [1], the system named is patients with solid tumours. Also on record: method as in PMID 15955900. As to conditions: recommended phase 2 dose; ref [11]–[44]; cited from earlier work.
In data set [2] the test system is patients with solid tumours. Also on record: method as in PMID 15955900. To be noted: recommended phase 2 dose; ref [11]–[44]; cited from earlier work. The source holds these as a separate data set.
For data set [3] the following is noted: cited from earlier work.
The conditions of data set [4]: Asian, at the MTD, ref not given, cited from earlier work.
The test system of data set [5] is patients with solid tumours. As to conditions: dose at which PK is compared; ref not given; cited from earlier work.
Setting [6] is: at the MTD, Day 1, ref not given.
The mark [7] stands for this setting: at the MTD, Day 28, ref not given.
Setting [8] is: at the MTD, Day 15, ref not given.
[9] abbreviates: at the MTD, Day 8, ref not given.
Where [10] appears, read: at the MTD, Day 23 or 24, ref not given.
[11] abbreviates: at the MTD, Day 21, ref not given.

Turning to `CN(C)C/C=C/C(=O)Nc1cc2c(Nc3ccc(F)c(Cl)c3)ncnc2cc1O[C@H]1CCOC1` [Afatinib], the “RP2D (Japan)” value in data set [1] was 50 mg QD. In addition, in data set [2], the “RP2D (Western)” value is 50 mg QD. In addition, the “AUC0-∞” value in data set [3] (Caucasian, at the MTD, Day 1 (footnote *), ref not given) is reported as 762* ng·h/mL. Also, the T1/2 in data set [3] (setting [6]) is recorded as 21.9 h; in data set [3] (setting [7]), 22.3 h; in data set [4] (Day 1), 14.8 h; in data set [4] (Day 28), 33.5 h. For the same compound, the results for the Tmax in data set [3] (setting [6]) and in data set [3] (setting [7]) were 5.08 h and 5.00 h, respectively. Moreover, the AUC0-24 is reported as 598 ng·h/mL in data set [3] (setting [7]), 539 ng·h/mL in data set [4] (Day 1) and 1010 ng·h/mL in data set [4] (Day 28). The MTD in data set [5] was 50 mg QD.

Take `CNC(=O)c1ccccc1Sc1ccc2c(/C=C/c3ccccn3)n[nH]c2c1` [Axitinib]: the “RP2D (Japan)” value in data set [1] is listed as 5 mg BID. For the same compound, in data set [2], the “RP2D (Western)” value was 5 mg BID. Besides, the AUC0-24 is 188 ng·h/mL in data set [3] (setting [6]), 258 ng·h/mL in data set [3] (setting [8]), 142 ng·h/mL in data set [4] (Day 1) and 138 ng·h/mL in data set [4] (Day 15). Further, the maximum concentration (Cmax) (in general, the maximum level reached in the sampled fluid or tissue) in data set [3] (setting [6]) is on record as 22 ng/mL; in data set [3] (setting [8]), 27 ng/mL; in data set [4] (Day 1) it was 17.0 ng/mL; in data set [4] (Day 15), 21.4 ng/mL. The T1/2 is 2.3 h in data set [3] (setting [6]), 2.3 h in data set [3] (setting [8]), 4.8 h in data set [4] (Day 1) and 4.04 h in data set [4] (Day 15). For the same compound, the time to peak (Tmax) – broadly, the time at which the peak concentration occurs – was 3.2 h in data set [3] (setting [6]), 2.4 h in data set [3] (setting [8]), 4.10 h in data set [4] (Day 1) and 1.37 h in data set [4] (Day 15). Besides, in data set [5], the MTD is given as 5 mg BID.

In the case of `Cc1cc(Nc2ncc(Cl)c(Nc3ccccc3S(=O)(=O)C(C)C)n2)c(OC(C)C)cc1C1CCNCC1` [Ceritinib], the “RP2D (Japan)” value in data set [1] is listed as 750 mg QD. The “RP2D (Western)” value in data set [2] is 750 mg QD. In addition, in data set [3] (setting [9]), the AUC0-24 is on record as 16,500±4750 ng·h/mL, the Cmax is 800 ± 205 ng/mL, the T1/2 is 41 h and the time to peak (Tmax) was 4 to 6 h. In data set [4] (Day 8), the AUC0-24 is on record as 25700 ng·h/mL, the Cmax is 1220 ng/mL and the Tmax was 6.96 h. In addition, the MTD in data set [5] was 750 mg QD.

Regarding `C[C@@H](Oc1cc(-c2cnn(C3CCNCC3)c2)cnc1N)c1c(Cl)ccc(F)c1Cl` [Crizotonib], in data set [1], the “RP2D (Japan)” value is listed as 250 mg BID. Further, in data set [2], the “RP2D (Western)” value is 250 mg BID.

As to `C#Cc1cccc(Nc2ncnc3cc(OCCOC)c(OCCOC)cc23)c1` [Erlotinib], in data set [1], the “RP2D (Japan)” value is listed as 150 mg QD. Moreover, the “RP2D (Western)” value in data set [2] was 150 mg QD. Besides, the AUC0-24 is 16510 ± 11020 ng·h/mL in data set [3] (setting [6]) and 38420 ± 29550 ng·h/mL in data set [3] (setting [10]). Also, the Cmax in data set [3] (setting [6]) was 1136 ± 865 ng/mL; in data set [3] (setting [10]) it was 2120 ± 1520 ng/mL; in data set [4] (Day 1) it was 958 ± 457.19 ng/mL; in data set [4] (Day 23 or 24) it was 2384.33 ± 932.43 ng/mL. The T1/2 is 20 ± 9.74 h in data set [3] (setting [6]), 18.18 ± 5.74 h in data set [3] (setting [10]), 25.92 ± 9.31 h in data set [4] (Day 1) and 27.19 ± 9.07 h in data set [4] (Day 23 or 24). Also, the Tmax was 6.00 ± 8.92 h in data set [4] (Day 1) and 1.83 ± 0.41 h in data set [4] (Day 23 or 24). Moreover, in data set [5], the MTD was 150 mg QD.

Consider `CO[C@H]1C[C@@H]2CC[C@@H](C)[C@@](O)(O2)C(=O)C(=O)N2CCCC[C@H]2C(=O)O[C@H]([C@H](C)C[C@@H]2CC[C@@H](OCCO)[C@H](OC)C2)CC(=O)[C@H](C)/C=C(\C)[C@@H](O)[C@@H](OC)C(=O)[C@H](C)C[C@H](C)/C=C/C=C/C=C/1C` [Everolimus], for which the “RP2D (Japan)” value in data set [1] was 10 mg QD.

As for `CS(=O)(=O)CCNCc1ccc(-c2ccc3ncnc(Nc4ccc(OCc5cccc(F)c5)c(Cl)c4)c3c2)o1` [Lapatinib], the “RP2D (Japan)” value in data set [1] was 1500 mg QD. In data set [2], the “RP2D (Western)” value is listed as 1250 mg QD.

Take `COc1cc2nccc(Oc3ccc(NC(=O)NC4CC4)c(Cl)c3)c2cc1C(N)=O` [Lenvatinib]: in data set [3] (setting [6]), the AUC0-24 is 3913.8 ng·h/mL, the Cmax is listed as 598.0 ng/mL, the T1/2 is on record as 5.3 h and the time of peak concentration (Tmax) is listed as 1.5 h. Also, in data set [3] (setting [7]), the AUC0-24 is recorded as 4783.0 ng·h/mL, the Cmax was 579.1 ng/mL, the T1/2 was 5.8 h and the Tmax is 2.8 h. Moreover, in data set [4] (Day 1), the AUC0-24 is listed as 3150 ng·h/mL and the Cmax is 418 ng/mL. Moreover, in data set [4] (Day 15), the AUC0-24 is on record as 4140 ng·h/mL, the Cmax is given as 518 ng/mL and the Tmax is 2.0 h.

For `Cc1ccc(Nc2nccc(N(C)c3ccc4c(C)n(C)nc4c3)n2)cc1S(N)(=O)=O` [Pazopanib], the “RP2D (Western)” value in data set [2] is 800 mg QD.

As to `CNC(=O)c1cc(Oc2ccc(NC(=O)Nc3ccc(Cl)c(C(F)(F)F)c3)c(F)c2)ccn1` [Regorafenib], in data set [1], the “RP2D (Japan)” value is 160 mg QD. Besides, the “RP2D (Western)” value in data set [2] was 160 mg QD. In data set [3] (setting [11]), the AUC0-24 was 58270 ng·h/mL, the maximum concentration (Cmax) is recorded as 3904 ng/mL, the T1/2 is listed as 22.23 h and the Tmax is given as 5.033 h. For the same compound, the MTD in data set [5] is recorded as 160 mg QD.

Consider `CNC(=O)c1cc(Oc2ccc(NC(=O)Nc3ccc(Cl)c(C(F)(F)F)c3)cc2)ccn1` [Sorafenib], for which, in data set [1], the “RP2D (Japan)” value is 400 mg BID. Also, in data set [2], the “RP2D (Western)” value was 400 mg BID.

With `CCN(CC)CCNC(=O)c1c(C)[nH]c(/C=C2\C(=O)Nc3ccc(F)cc32)c1C` [Sunitinib], the “RP2D (Japan)” value in data set [1] was 50 mg QD. Besides, the “RP2D (Western)” value in data set [2] is recorded as 50 mg QD. The AUC0-24 in data set [3] (setting [6]) is listed as 420 ng·h/mL; in data set [3] (setting [7]) it was 1296 ng·h/mL; in data set [4] (Day 1) it was 374 ng·h/mL; in data set [4] (Day 28), 1406 ng·h/mL. Further, the time of peak concentration (Tmax) is on record as 5.0 h in data set [3] (setting [6]), 8.5 h in data set [3] (setting [7]), 7 h in data set [4] (Day 1) and 6 h in data set [4] (Day 28). The maximum concentration (Cmax) is listed as 22.8 ng/mL in data set [4] (Day 1) and 69.3 ng/mL in data set [4] (Day 28). For the same compound, the MTD in data set [5] is recorded as 50 mg QD.

As for `COc1cc2c(Nc3ccc(Br)cc3F)ncnc2cc1OCC1CCN(C)CC1` [Vandetanib], in data set [1], the “RP2D (Japan)” value is on record as 300 mg QD. In data set [2], the “RP2D (Western)” value is reported as 300 mg QD.

Regarding `CCCS(=O)(=O)Nc1ccc(F)c(C(=O)c2c[nH]c3ncc(-c4ccc(Cl)cc4)cc23)c1F` [Vemurafenib], the “RP2D (Japan)” value in data set [1] is listed as 960 mg BID. Besides, the “RP2D (Western)” value in data set [2] is reported as 960 mg BID. In addition, the results for the peak concentration (Cmax) in data set [3] (setting [8]) and in data set [3] (in vivo) were 61400 ng/mL and 4800 ng/mL, respectively. Also, the values for the T1/2 in data set [3] (setting [8]), in data set [4] (Day 1) and in data set [4] (Day 15) were 34.1 h, 12.7 h and 60.8 h, respectively. For the same compound, the time of peak concentration (Tmax) in data set [3] (in vivo) was 5.0 h. Further, the MTD in data set [5] is 960 mg BID.
